Measurements taken from patent US20220112149A1, “DRUG DESIGN METHOD ASSOCIATED WITH NATURAL PRODUCTS, PENTACYCLIC TRITERPENOID COMPOUND, PREPARATION METHOD AND APPLICATIONS THEREOF” (Huazhong Agricultural University, priority 2020, published 2022).

Experiments:
mice = settings: cited from earlier work
[1] = system: NF-κB signaling in HEK293 cells; experiment: NF-κB luciferase reporter gene system; assay type: cell-based; settings: Homo sapiens, HEK293, read-out: inhibition of the fluorescence signal (NF-κB luciferase reporter)
Procedure: FIGS. 10A-10C show the inhibition verification effect chart of GA-02 in Example 5, where FIG. 10A: GA-02 inhibited LPS-induced ICAM-1 expression activity. The inflammatory pathway of HMEC-1 cell was activated by 1 μg/mL LPS, to determine the effect of Celastrol and GA-02 on the expression of ICAM-1 induced by LPS. FIG. 10B: The effect of GA-02 on NF-κB signaling. The NF-κB luciferase reporter plasmid was used to transfect HEK293 cells, and the effects of Celastrol and GA-02 on the NF-κB activity induced by TNF-α were determined; FIG. 10C: qRT-PCR was used to detect mRNA relative expressions of IL-1β, TNF-α, IL-6 and MCP-1.
ICAM-1 is a downstream effector molecule regulated by NF-κB signaling pathway, and NF-κB plays an important role in regulating the expression of ICAM-1 gene. Celastrol can inhibit the activation of the LPS-induced IKK/NF-κB signaling pathway. In order to validate that GA-02 functions through the IKK/NF-κB signaling pathway, we constructed an NF-κB luciferase reporter gene system to validate the inhibitory activity of Celastrol and GA-02 on the luciferase reporter gene. […] In addition, both Celastrol and GA-02 could down-regulate the mRNA transcription levels of inflammatory factors IL-1β, TNF-α, IL-6 and MCP-1 activated by LPS.

[2] = in vivo; cited from earlier work
normal rats = settings: cited from earlier work
[3] = system: mice with hereditary diabetes; settings: cited from earlier work
[4] = system: ICAM-1 expression in HMEC-1 cells; experiment: LPS-induced ICAM-1 expression in HMEC-1 cells, flow cytometry; assay type: cell-based, human
Procedure: (3) Screening candidate molecules with the strongest ICAM-1 inhibitory activity by simulating the physiological model of inflammation that human microvascular endothelial cells (HMEC-1) expressing cell adhesion molecules (ICAM-1) mediate lymphocytes to penetrate blood vessels to infiltrate the damaged tissues. The specific steps are as follows:
(§1) 1) Culture of HMEC-1 cells: HMEC-1 cells are cultured in MCDB131 medium (U.S. Sigma) that contain 10% fetal bovine serum (FBS, Zhejiang Tianhang Biotechnology Co., Ltd.), double antibody (100 U/mL penicillin and 100 μg/mL streptomycin), 1 μg/mL hydrocortisone (Sangon Biotech (Shanghai) Co., Ltd.) and 10 ng/mL human recombinant growth factor (hEGF, Sangon Biotech (Shanghai) Co., Ltd.) at 37° C., 5% CO2, and 100% RH.
2) HMEC-1 cells are inoculated into a 24-well plate, and cultured in a cell incubator at 37° C., 5% CO2, and 100% RH. When the cells grow to 80% abundance, different concentrations of drugs are added for 3 h (1 μM Celastrol as a positive control drug). At the end of treatment, 1 μg/mL LPS is added to activate the NF-κB signaling pathway for 12 hours. After activation, the supernatant medium is discarded, and washed three times with PBS, and 100 μL of 0.25% pancreatin (containing 0.5 mM EDTA) is added to digest in a 37° C. incubator for 3 min. When most of cells are shed, 150 μL of MCDB131 complete medium is added to terminate the digestion, shaken for 3 min, then cells are transferred to a V-shaped 96-well plate (Corning), centrifuged at 4° C., 3000 rpm for 3 min to precipitate cells. Then the supernatant medium is discarded, 100 μL of pH=7.4 buffer A (PBS+0.5% BSA+1 mM MgCl2) is added to each well, to wash once, centrifuged at 4° C., 3000 rpm for 3 min, and the buffer A is aspirated. To each well, 100 μL of PBS solution containing 5% bovine serum albumin is added, and shaken and blocked at 120 rpm for 30 min at room temperature; after blocking, centrifuged at 4° C. and 2000 rpm for 3 min, and the supernatant is discarded, 20 μl of buffer A containing 5 μg/mL of primary antibody anti-ICAM-1 antibody LB-2, shaken and incubated at room temperature at 120 rpm for 1 h, using the buffer A without adding anti-ICAM-1 antibody LB-2 as the negative control. By detecting anti-ICAM-1 fluorescence value by flow cytometry, the expression of ICAM-1 protein in HMEC-1 cells is detected indirectly. Three duplicate wells are established for each concentration. PBS is set as a blank control, 1 uM of Celastrol is set as a positive control, to analyze the inhibitory effect of different concentrations of drugs on the expression level of ICAM-1.
as §1, with “U/ml” for “U/mL”, “μg/ml” for “μg/mL”, “Biotech)” for “Biotech (Shanghai) Co., Ltd.)”, “ng/ml” for “ng/mL”
HMEC-1 cells are inoculated into a 24-well plate, and cultured in a cell incubator at 37° C., 5% CO2, and 100% RH. When the cells grow to 80% abundance, different concentrations of drugs are added for 3 h (1 μM Celastrol as a positive control drug). At the end of treatment, 1 μg/mL LPS is added to activate the NF-κB signaling pathway for 12 hours. After activation, the supernatant medium is discarded, and washed three times with PBS, and 100 μL of 0.25% pancreatin (containing 0.5 mM EDTA) is added to digest in a 37° C. incubator for 3 min. When most of cells are shed, 150 μL of MCDB131 complete medium is added to terminate the digestion, shaken for 3 min, then cells are transferred to a V-shaped 96-well plate (Corning), centrifuged at 4° C., 3000 rpm for 3 min to precipitate cells. Then the supernatant medium is discarded, 100 μL of pH=7.4 buffer A (PBS+0.5% BSA+1 mM MgCl2) is added to each well, to wash once, centrifuged at 4° C., 3000 rpm for 3 min, and the buffer A is aspirated. […]

[5] = system: high-fat-induced obese mice; experiment: GA-03 in high-fat-induced obese mouse model, intraperitoneal; assay type: in vivo, C57BL/6 mice
Procedure: Animals are fed with 60% calorie high-fat diets (purchased from Bio-medicine) for 14 consecutive weeks. […] When the blood glucose is greater than 11 mmol/L and the body weight is greater than 42 g, the administration is started. […] The injection volume is […]. In addition, a vehicle (25 μL DMSO) is established. […] Mice in the blank group and GA-02 treatment group underwent pathological anatomy, to observe the changes in organs before and after administration. Samples are taken to prepare pathological sections.
The model is constructed by feeding high-fat diets to C57BL/6 male mice for 14 weeks, as shown in FIGS. 22A-22D, obese model mice with a body weight greater than 42 g and blood glucose level higher than 11 mmol/L. Model mice are grouped by blood glucose and body weight. […]

lean mice = settings: mouse, in vivo, ip
Procedure: Six-week-old SPF-grade C57BL/6 mice (purchased from Hubei Provincial Center for Disease Control and Prevention) are fed in SPF animal house at a room temperature of 22° C., 4 mice per cage. Animals are fed with common diets (purchased) for 2 consecutive weeks. Mice are free to take food and the padding is changed every two days, and the body weights and blood glucose are monitored every week. When the body weight is greater than 22 g, the administration is started. The drug is dissolved in DMSO solvent and administered by intraperitoneal injection. The injection volume is 25 μL per day. In addition, a vehicle and positive drug control are established. The food intake and body weight changes of mice in each group are measured every day. On Days 1 and 21, the blood routine and blood biochemical parameters are monitored. At the same time, the glucose tolerance test (GTT) and insulin tolerance test (ITT) are carried out.

mildly obese mice = experiment: GA-03 in mildly obese mouse model, intraperitoneal; assay type: in vivo, C57BL/6 mice; settings: intraperitoneal injection
Procedure: Animals are fed with common diets (purchased) for 14 consecutive weeks. […] When the body weight is greater than 30 g, the administration is started. […] The injection volume is 25 μL per day.

[6] = high-dose (8 mg/kg) i.p., second day
[7] = high-dose (8 mg/kg) i.p., third day
[8] = low-, medium- and high-dose (2, 4, 8 mg/kg) i.p.

For `CC1=C(O)C(=O)C=C2C1=CC=C1[C@@]2(C)CC[C@@]2(C)[C@@H]3C[C@](C)(C(=O)O)CC[C@]3(C)CC[C@]12C` [Celastrol], the “toxicity to the brains, hearts and livers” value (mice; dose of 1 mg/kg) is listed as “serious toxicity”, the lethality rate (mice; dose of 4 mg/kg) is listed as 40% and the inhibition at 1 µM [1] is listed as 70%. For the same molecule, the bioavailability [2] was 17.06%.
In the case of `C[C@H]1[C@H](C)CC[C@]2(C(=O)O)CC[C@]3(C)C(=CC[C@@H]4[C@@]5(C)C[C@@H](O)[C@H](O)C(C)(C)[C@@H]5CC[C@]43C)[C@H]12` [corosolic acid], the blood glucose lowering (normal rats) is listed as “significant effect of lowering blood glucose” and the blood glucose lowering [3] is listed as “significant effect of lowering blood glucose”.
For `CC1(C)[C@@H](O)CC[C@]2(C)[C@H]3C(=O)C=C4[C@@H]5C[C@@](C)(C(=O)O)CC[C@]5(C)CC[C@@]4(C)[C@]3(C)CC[C@@H]12` [18-β-glycyrrhetinic acid, reference compound], the “ICAM-1 inhibitory activity among the candidate triterpene natural products” value ([4]; HMEC-1, 1 μg/mL LPS, FIG. 3) was “best ICAM-1 inhibitory activity”.
In the case of “11-dicarbonyl-12-ene-2α,3β-dihydroxy-oleanane [GA-03]”, the “body weight reduced by” value ([5]; high dose 8 mg/kg i.p., three weeks) is reported as 33.80±2.95%, the “body weight after three weeks of administration” value (“body weight after three weeks” below) ([5]; high dose 8 mg/kg i.p., from 47.49±0.97 g) is reported as 31.45 ± 1.81 g and the “liver function indexes AST and ALT vs vehicle control group” value ([5]; high-dose (8 mg/kg) i.p.) is reported as “significantly lower”. For the same molecule, the “average daily food intake” value ([5]; high-dose (8 mg/kg) i.p., first day of administration, day 0: 3.14±0.40 g) was 0.65 ± 0.02 g, the body weight ([5]; high-dose (8 mg/kg) i.p., first day, from 47.49±0.97 g) was 46.18 ± 0.95 g and the “average daily food intake” value [5, 6] was 0.57 ± 0.01 g. For the same molecule, the body weight [5, 6] was 44.74 ± 0.76 g, the “average daily food intake” value [5, 7] was 0.66 ± 0.06 g and the body weight [5, 7] was 43.13 ± 0.65 g. For the same molecule, the “lipid droplets in the liver (oil red O and H&E staining)” value ([5]; high-dose (8 mg/kg) i.p., three weeks) was “completely disappeared”, the “effect on appetite suppression and weight reduction” value ([5]; intraperitoneal injection, obese mice) was “strong effect” and the “body weight reduced by” value ([5]; low dose 2 mg/kg i.p., three weeks) was 20.40±1.89%. The “body weight after three weeks” value ([5]; low dose 2 mg/kg i.p., from 47.11±1.32 g) was 37.49 ± 1.28 g, the “fasting blood glucose levels” value [5, 8] was “reduce to a normal level” and the “weights of liver and epididymal fat compared to the vehicle control group” value [5, 8] was “decrease in a dose-dependent manner”. The “blood glucose tolerance (GTT) and insulin tolerance (ITT)” value ([5]; low-, medium- and high-dose groups, i.p.) was “significantly improved”, the “body weight reduced by” value ([5]; medium dose 4 mg/kg i.p., three weeks) was 27.63±3.39% and the “body weight after three weeks” value ([5]; medium dose 4 mg/kg i.p., from 46.94±1.41 g) was 33.99 ± 2.30 g. The “effect on the food intake and body weight” value (lean mice) was “no effect”, the “anti-inflammatory activity compared with reference compounds” value [4] was “basically equivalent to that of GA-02 and superior to 18β-glycyrrhetinic acid” and the “effect on appetite suppression and weight reduction” value (mildly obese mice) was “obvious effect”.
